# Test results reported in patent US4798898A, “Antitussive and mucus regulating 2-substituted thiazolidines” (Boehringer Biochemia Robin S.p.A., priority 1984, dated 1989).
# Counter-ions that a name gives are not always drawn.
# What was measured:
# [1] = system: cough induced by electric stimulation in dogs; assay: Dog cough test (cough induced by electric stimulation, Stefko procedure); assay type: in vivo, conscious mongrel dogs; conditions: for duration of action (antitussive): test not named; for duration of action: in words; for % inhibition of cough stimulus: oral, dose not given
# Method: (§1) The techniques described by Charlier et al. (Arch. Int. Pharmacodyn. 134, 306, 1961) and by Stefko et al. (J. Pharm. Exp. Therap., 108, 217, 1953), adapted with minor modifications, are used to investigate the antitussive properties of the compounds of the invention. Codeine phosphate is used as positive reference compound.
# In the Stefko procedure, conscious mongrel dogs (15±3 kg body weight) are used; the compounds of the invention are tested for their ability to inhibit cough induced by electric stimulation.
# Under general anesthesia, two insulated nichrome wires (0.4 mm diameter) are surgically implanted into the submucosa of the trachea.
# About two days later, the dogs are placed in a sling and the exteriorized electrodes are connected to an electric stimulating device (such as Grass S 48 Mod.).
# The stimulation parameters such as: delay 0.01 msec, duration 1 msec, frequency 30 Hz, are used.
# An electrical stimulus of 1 sec is applied 10 times at 5 sec intervals in order to determine the minimum voltage necessary for eliciting reproducible cough responses. Then, tussive responses to the electrical stimuli are registered at 15, 30, 60, 90, 120, 150, 180, 240, 300 and 360 minutes after oral administration of the compounds of the invention.
# The tussive responses are scored as follows: 1: no response; 2: sigh or exaggerated expiration; 3: marked cough; 4: one marked cough and one exaggerated expiration: 5: two marked coughs.
# Six dogs are employed for each determination and the mean activity is calculated.
# The inhibition percent of the cough response and the duration of activity are compared with codeine.
# [2] = system: cough induced by citric acid aerosol in guinea pigs; assay: Guinea pig cough test (citric acid aerosol, Charlier procedure); assay type: in vivo; conditions: Cavia porcellus, inhaled or nasal, antitussive test not given
# [3] = system: pathological sputum of bronchitic rabbits; assay: Mucus regulating properties in bronchitic rabbits (sputum AUC as % compared to bronchitic controls); assay type: in vivo, male New Zealand white rabbits; conditions: for Fucose (mg/ml), AUC as a 100% compared to bronchitic controls / Galactose (mg/ml), AUC as a 100% compared to bronchitic controls / Mucus production (ml/kg), AUC as a 100% compared to bronchitic controls / Phospholipids (mg/ml), AUC as a 100% compared to bronchitic controls / Protein (mg/ml), AUC as a 100% compared to bronchitic controls / Sialic acid (mg/ml), AUC as a 100% compared to bronchitic controls / Viscosity (cps), AUC as a 100% compared to bronchitic controls: Table 2, oral, equimolecular amounts to S-carboxymethyl cysteine; for mucus regulating activity (in words): rabbit, in vivo
# Method: The animals are submitted to inhalation of a 5% H2 SO3 aqueous solution by aerosol (exposition of 3 hours a day for 3 alternate days), to induce a chronic bronchial inflammatory disease which causes a production of pathological sputum in the bronchial tree.
# Aim of the experiments is to evaluate modifications of selective parameters such as dry weight of the sputum, viscosity, content in proteins, phospholipids, galactose, sialic acid and fucose, induced in this pathological sputum by pharmacological treatment with the compounds of the invention.
# To this purpose, the sputum produced in the bronchial tree is collected daily, through a "T" shaped glass cannula, inserted in the trachea, before and after oral twice a day (9.00 a.m. and 4.00 p.m.) treatment with one of the compounds of the invention.
# The schedule treatment procedure is shown in the following Scheme 1: [drawing 21] where 0 indicates the day of implantation of the tracheal cannula; -7-5-3 indicate the days of H2 SO3 treatment (H); 1, 2, 3, 4 indicate the days of oral administration of the compounds of the invention (T) and the time of mucus collection (M).
# The mucus collected in day 1 in the morning is considered as a blank; 7 indicates the day of the animal sacrifice after the mucous collection.
# The sputum samples are stored in the freezer (-20° C.) until the investigation of biological and rheological parameters is carried out.
# The samples are investigated for relative viscosity, measured at 37° C. with a Brookfield viscometer (model LT VD) equipped with a 1,565° cone-plate, and aliquoted for biochemical analysis of protein, phospholipids, galactose, sialic acid and fucose contents. Dry weight of the mucus is also determined. For each parameter, cumulative data are referred to a seven days period after the beginning of the treatment and they are extrapolated using the AUC method (area under curve) calculated by the trapazoidal rule. Finally the data are compared with data obtained from controls (vehicle treatment), non bronchitic rabbits (vehicle treatment) and positive controls bronchitic rabbits treated with 0.153M […].
# [4] = system: cough induced by citric acid aerosol in guinea pigs; assay: Guinea pig cough test (citric acid aerosol, Charlier procedure); assay type: in vivo
# Method: as §1
# According to the Charlier procedure guinea pigs are exposed to a citric acid aerosol (7.5%) and cough is recorded 60 minutes after the antitussive treatment by i.p. route. Male animals of 300-400 g pigs are placed in perspex box (20×30×30 cm) connected to an aerosol compressor; the animals are subjected to a citric acid saturated atmosphere, 60 minutes after the i.p. injection of a compound of the invention (0.1 and 0.3M solutions; 1 ml/kg).
# The total number of cough strokes and the delay of the first cough are recorded during the first five minutes.
# Five guinea pigs are used for each dose level and the results are compared with controls (vehicle treatment) and codeine phosphate 0.07M solution (standard treatment).
# ED50 and the corresponding delay of first cough stroke are calculated.
# The data obtained by i.p. administration are confirmed by oral administration.
# [5] = system: guinea pig trachea smooth muscle strips; assay: In vitro relaxation of guinea pig trachea smooth muscle strips contracted by methacoline; conditions: Cavia porcellus, contracted by methacoline, read-out: ED50 (relaxation of trachea smooth muscle strips)
structure (smiles),measurement,setting,value
C#CCOc1ccccc1OCC1SCCN1C(=O)CCNCCNCCO (stereo not shown),duration of action (antitussive),[1],very prolonged duration of action
same,ED50,[2],3 to 6 mg/kg
C=CCOc1ccccc1OCC1SCCN1C(=O)CN (stereo not shown),ED50,[2],3 to 30 mg/kg
COc1ccccc1OCC1(COc2ccccc2OC)SCCN1C(=O)CSC(C)=O,duration of action,[1]; dog cough test,very prolonged action
same,duration of action relative to codeine phosphate,"[1]; dog cough test, longer than codeine phosphate",2-3 times
same,% inhibition of cough stimulus,[1]; dog,13%
same,ED50,[2],230 mg/kg
"CCOC(=O)[C@@H]1CSC(COc2ccccc2OC)(COc2ccccc2OC)N1 [2,2-di(o-methoxyphenoxy)methyl-4-carbethoxythiazolidine]",ED50,[2],116 mg/kg
COc1ccccc1OCC1SCCN1C(=O)CSC(C)=O (stereo not shown) [2-(o-methoxyphenoxy)methyl-3-acetylthioacetylthiazolidine],"Fucose (mg/ml), AUC as a 100% compared to bronchitic controls",[3],151%
same,"Galactose (mg/ml), AUC as a 100% compared to bronchitic controls",[3],57%
same,"Mucus production (ml/kg), AUC as a 100% compared to bronchitic controls",[3],127%
same,"Phospholipids (mg/ml), AUC as a 100% compared to bronchitic controls",[3],37%
same,"Protein (mg/ml), AUC as a 100% compared to bronchitic controls",[3],78%
same,"Sialic acid (mg/ml), AUC as a 100% compared to bronchitic controls",[3],107%
same,"Viscosity (cps), AUC as a 100% compared to bronchitic controls",[3],59%
same,mucus regulating activity (in words),[3],mucus regulating properties
same,antitussive properties (in words),[4],good antitussive activity
same,ED50,"[4]; guinea pig cough test, i.p., 60 minutes after treatment, 60 min",77.1 mg/kg
same,ED50,"[4]; guinea pig cough test, i.p., 60 minutes after treatment, listed as 3-Acetylthioacetyl-2-(o-methoxyphenoxymethyl)thiazolidine, 60 min",lower than 5 mg/kg
same,duration of action,[1]; dog cough test,more favourable duration of action in comparison to codeine
same,inhibition of the cough stimulus,"[1]; dog, 20 mg/kg",54.2%
Cc1ccccc1OCC1SCCN1C(=O)Cn1ccnc1 (stereo not shown) [2-tolyloxy-methyl-3-(imidazol-1'-yl)acetylthiazolidine],mucus regulating activity (in words),[3],"some mucus regulating action in the bronchitic rabbits, with a spectrum of action very close to that of carboxymethylcysteine"
same,antitussive properties (in words),[4],not active in the cough tests
same,antitussive properties (in words),[1]; dog cough test,not active in the cough tests
COc1ccccc1OCC1SCCN1C(=O)CCNCCNCCO (stereo not shown) [3-(3-(2-hydroxyethylamino)ethyl)aminopropanoyl-2-((O-methoxyphenoxy)methyl-thiazolidinebis maleate],duration of action (antitussive),[1],very prolonged duration of action
same,ED50,[2],3 to 6 mg/kg
COc1ccccc1OCC1SCCN1C(=O)CNC(C)=O (stereo not shown) [3-(N-acetylaminoacetyl)-2-(O-methoxyphenoxy)methyl-thiazolidine],ED50,[2],3 to 30 mg/kg
O=C(Cn1ccnc1)N1CCSC1COc1ccccc1O (stereo not shown) [3-(imidazol-1'-yl)acetyl-2-[(o-hydroxyphenoxy)methyl]thiazolidone],mucus regulating activity (in words),[3],strong mucus regulating activity
same,ED50,[2],96 mg/kg
COc1ccccc1OCC1SCCN1C(=O)Cn1ccnc1 (stereo not shown) [3-(imidazol-1-yl)acetyl-2-(o-methoxyphenoxy)methyl-thiazolidine],"Fucose (mg/ml), AUC as a 100% compared to bronchitic controls",[3],97.5%
same,"Galactose (mg/ml), AUC as a 100% compared to bronchitic controls",[3],21.8%
same,"Mucus production (ml/kg), AUC as a 100% compared to bronchitic controls",[3],162.5%
same,"Phospholipids (mg/ml), AUC as a 100% compared to bronchitic controls",[3],65.8%
same,"Protein (mg/ml), AUC as a 100% compared to bronchitic controls",[3],55.2%
same,"Sialic acid (mg/ml), AUC as a 100% compared to bronchitic controls",[3],63.8%
same,"Viscosity (cps), AUC as a 100% compared to bronchitic controls",[3],39.1%
same,mucus regulating activity (in words),[3],strong mucus regulating activity
same,ED50,[2],40.6 mg/kg
COc1ccccc1OCC1SCCN1C(=O)OC(C)(C)C (stereo not shown) [3-BOC-2-(O-methoxyphenoxy)-methyl-thiazolidine],ED50,[2],3 to 30 mg/kg
COc1ccccc1OCC1SCCN1C(=O)C1CC1 (stereo not shown) [3-cyclopropylcarbonyl-2-(o-methoxyphenoxy)methylthiazolidine],"Fucose (mg/ml), AUC as a 100% compared to bronchitic controls",[3],103.6%
same,"Galactose (mg/ml), AUC as a 100% compared to bronchitic controls",[3],60.0%
same,"Mucus production (ml/kg), AUC as a 100% compared to bronchitic controls",[3],90%
same,"Phospholipids (mg/ml), AUC as a 100% compared to bronchitic controls",[3],74.5%
same,"Protein (mg/ml), AUC as a 100% compared to bronchitic controls",[3],57.9%
same,"Sialic acid (mg/ml), AUC as a 100% compared to bronchitic controls",[3],60%
same,"Viscosity (cps), AUC as a 100% compared to bronchitic controls",[3],92.6%
same,antitussive properties (in words),[4],devoid of any antitussive properties
same,antitussive properties (in words),[1]; dog cough test,devoid of any antitussive properties
CCOC(=O)C(=O)N1CCSC1COc1ccccc1OC (stereo not shown) [3-ethoxyoxalyl-2-(o-methoxyphenoxy)methyl-thiazolidine],"Fucose (mg/ml), AUC as a 100% compared to bronchitic controls",[3],149.3%
same,"Galactose (mg/ml), AUC as a 100% compared to bronchitic controls",[3],52.3%
same,"Mucus production (ml/kg), AUC as a 100% compared to bronchitic controls",[3],108.7%
same,"Phospholipids (mg/ml), AUC as a 100% compared to bronchitic controls",[3],59.8%
same,"Protein (mg/ml), AUC as a 100% compared to bronchitic controls",[3],62%
same,"Sialic acid (mg/ml), AUC as a 100% compared to bronchitic controls",[3],56.8%
same,"Viscosity (cps), AUC as a 100% compared to bronchitic controls",[3],65.1%
same,antitussive properties (in words),[4],devoid of any antitussive properties
same,antitussive properties (in words),[1]; dog cough test,devoid of any antitussive properties
COc1ccccc1OCC1SCCN1C(=O)CN (stereo not shown) [3-glycinyl-2-(O-methoxyphenoxy)methyl-thiazolidine],ED50,[2],3 to 30 mg/kg
COc1ccccc1OCC1N[C@H](C(=O)O)CS1 (stereo partly shown) [4-carboxy-2-(o-methoxyphenoxymethyl)thiazolidine],"Fucose (mg/ml), AUC as a 100% compared to bronchitic controls",[3],55%
same,"Galactose (mg/ml), AUC as a 100% compared to bronchitic controls",[3],29%
same,"Mucus production (ml/kg), AUC as a 100% compared to bronchitic controls",[3],95%
same,"Phospholipids (mg/ml), AUC as a 100% compared to bronchitic controls",[3],49%
same,"Protein (mg/ml), AUC as a 100% compared to bronchitic controls",[3],48%
same,"Sialic acid (mg/ml), AUC as a 100% compared to bronchitic controls",[3],52%
same,"Viscosity (cps), AUC as a 100% compared to bronchitic controls",[3],40%
same,ED50,"[4]; guinea pig cough test, i.p., 60 minutes after treatment",inactive
same,duration of action,[1]; dog cough test,middle
same,% inhibition of cough stimulus,[1]; dog,43.8%
"COc1ccc2c3c1O[C@H]1[C@@H](O)C=C[C@H]4[C@@H](C2)N(C)CC[C@@]341 [codeine phosphate, reference compound]",ED50,"[4]; Cavia porcellus, ip, 1 h",~23 mg/kg
same,% delay of the first cough,"[4]; guinea pig cough test, control 100",170%
same,duration of inhibition of the cough stimulus,"[1]; dog, 8 mg/kg",2 to 4 h
same,inhibition of the cough stimulus,"[1]; dog, 8 mg/kg",52%
"Cn1c(=O)c2c(ncn2CC(O)CO)n(C)c1=O (stereo not shown) [dihydroxypropyltheophylline, reference compound]",EC50,[5],76 µM
